Measurements from patent publication US20090018194A1, “Use of antimicrobial agents derived from alliaceous plants for the prevention and control of crop diseases, post-harvest rot and as environmental disinifectant products” (DMC Research Center, S.L., priority 2007, published 2009).

Tests used:
[1] = tested on: Rhizopus stolonifer ATCC 24862; experiment: agar diffusion test, commercial phytosanitaries; assay type: cell-based; details: incl. 6 mm disc
[2] = tested on: Trichoderma aureoviride CECT 20102; experiment: agar diffusion test, commercial phytosanitaries; assay type: cell-based; details: incl. 6 mm disc
[3] = tested on: Geotrichum candidum CECT 1902; experiment: agar diffusion test, commercial phytosanitaries; assay type: cell-based; details: incl. 6 mm disc
[4] = tested on: Penicillium italicum CECT 2294; experiment: agar diffusion test with impregnated cellulose discs; assay type: cell-based; details: incl. 6 mm disc
Botrytis cinerea [5] = experiment: post-harvest rotting of inoculated apples, drencher treatment; assay type: in vivo; details: 450 ppm, 15 days of refrigeration at 5-6° C.
Experimental: (§1) The effectiveness of the active principle PTS (in various individual doses) was studied in the control of post-harvest rotting of pears and apples caused by the fungi Botrytis cinerea and Penicillium expansum, the principal agents of diseases in these fruits. These phytopathogens can appear in fruit being stored in a cold room and, once in the processing plant and in a later phase, form colonies and are transferred from one fruit to another by contact. The study was performed by means of a controlled inoculation test to ensure a high percentage of affected fruits, and to guarantee that this level of infection is with certainty caused by these pathogens, thereby making it possible to detect and evaluate significant differences between the different treatments. […] To perform the controlled inoculation, wild strains of Botrytris cinerea and Penicillium expansum were used which were isolated in fruit and vegetable processing plants. […] After the time indicated above had passed, the various post-harvest treatments were carried out by means of […] 25° C. for 60 seconds.

Penicillium expansum [6] = experiment: as above; assay type: in vivo; details: 450 ppm, 15 days of refrigeration at 5-6° C.
Experimental: as §1

[7] = tested on: pears (Decana and Flor de Invierno varieties); experiment: phytotoxicity on treated pears; details: 450 ppm
Botrytis cinerea [8] = experiment: post-harvest rotting of inoculated pears, drencher treatment; assay type: in vivo; details: 450 ppm, 15 days of refrigeration at 5-6° C.
Experimental: as §1

Penicillium expansum [9] = experiment: as above; assay type: in vivo; details: 450 ppm, 15 days of refrigeration at 5-6° C.
Experimental: as §1

[10] = tested on: apples (Golden Delicious and Red Chief varieties); experiment: phytotoxicity on treated apples; details: 450 ppm

| Compound | diameter of the microbial inhibition halo ([1]; 4000 ppm active principle) [mm] | diameter of the microbial inhibition halo ([1]; 6000 ppm active principle) [mm] | diameter of the microbial inhibition halo ([2]; 4000 ppm active principle) [mm] | diameter of the microbial inhibition halo ([2]; 6000 ppm active principle) [mm] | diameter of the microbial inhibition halo ([3]; 4000 ppm active principle) [mm] | diameter of the microbial inhibition halo ([3]; 6000 ppm active principle) [mm] | diameter of the microbial inhibition halo ([4]; 4000 ppm active principle) [mm] | diameter of the microbial inhibition halo ([4]; 6000 ppm active principle) [mm] | further results |
| --- | --- | --- | --- | --- | --- | --- | --- | --- | --- |
| c1ccc(-c2ccccc2)cc1 [Biphenyl] | 0 | 0 | 0 | 0 | 0 | 0 | 7 | 8 |  |
| Oc1ccccc1-c1ccccc1 [o-pheynl phenol] | 14 | 15 | 40 | 42 | 45 | 47 | 45 | 45 |  |
| imazalil sulfate [reference compound] |  |  |  |  |  |  |  |  | % of fruit affected (Botrytis cinerea [5]; Golden Delicious): 10%; % of fruit affected (Botrytis cinerea [5]; Red Chief): 12%; % of fruit affected (Penicillium expansum [6]; Golden Delicious): 4.3%; % of fruit affected (Penicillium expansum [6]; Red Chief): 6.2%; Phytotoxicity (number of damaged fruits) ([7]; Decana, fruit inoculated with Botrytis cinerea): 0; Phytotoxicity (number of damaged fruits) ([7]; Decana, fruit inoculated with Penicillium expansum): 0; Phytotoxicity (number of damaged fruits) ([7]; Flor de invierno, fruit inoculated with Botrytis cinerea): 0; Phytotoxicity (number of damaged fruits) ([7]; Flor de invierno, fruit inoculated with Penicillium expansum): 0; % of fruit affected (Botrytis cinerea [8]; Decana): 19%; % of fruit affected (Botrytis cinerea [8]; Flor de invierno): 24%; % of fruit affected (Penicillium expansum [9]; Decana): 4.5%; % of fruit affected (Penicillium expansum [9]; Flor de invierno): 6.7%; Phytotoxicity (number of damaged fruits) ([10]; Golden Delicious, fruit inoculated with Botrytis cinerea): 0; Phytotoxicity (number of damaged fruits) ([10]; Golden Delicious, fruit inoculated with Penicillium expansum): 0; Phytotoxicity (number of damaged fruits) ([10]; Red Chief, fruit inoculated with Botrytis cinerea): 0; Phytotoxicity (number of damaged fruits) ([10]; Red Chief, fruit inoculated with Penicillium expansum): 0 |
